This passage reports IC50 results from US12264156B2, “Compounds and pharmaceutical compositions thereof for the treatment of diseases” (GALAPAGOS NV, priority 2018, dated 2025).

What all share (format): biochemical
Common to all, as to settings: ADP-Glo SIK kinase assay

The target of one assay is T1, SIK1 (Homo sapiens, UniProt P57059).
T1 construct: purchased Carna Biosciences 02-131
The experiment in a line: ADP-Glo kinase assay, SIK1. Here is the method: (§1) The ADP-Glo™ kinase assay is a luminescent technology assay which measures the ADP formed from a kinase reaction. […] In a second step the kinase reactions are terminated and all the remaining ATP is depleted. In a final step the ADP is converted into ATP and this newly synthesized ATP is measured by using a luciferase/luciferin reaction. The generated light is measured using an Envision plate reader, wherein the luminescent signal obtained positively correlates with the kinase activity.
(§2) 1% DMSO and 10 μM staurosporine final concentrations are used as negative and positive controls.
(§3) 2 μL enzyme-substrate mixture is added to the assay plates.
(§4) The reaction is started by adding 2 μL diluted ATP on the assay plates. Plates are centrifuged for a few seconds at 1000 rpm and gently shaken for 2 min followed by an incubation at RT for 120 min.
(§5) The reactions are stopped and the unconsumed ATP is depleted by adding 5 μL ADP-Glo Reagent (Promega, Cat #V912B) to the reaction. The plates are centrifuged for a few seconds at 1000 rpm and incubated at RT for 40 min (ATP depletion).
(§6) The ADP is converted to ATP and luciferase and luciferin is introduced to detect ATP by adding 10 μL Kinase Detection Reagent (Promega, Cat #V913B+V914B) to the reaction. The plates are centrifuged for a few seconds at 1000 rpm and incubated at RT for 30 min (ADP detection).
(§7) Luminescence is measured on an Envision plate reader (PerkinElmer Inc.).

The next assay deals with T2, SIK2 (Homo sapiens, UniProt Q9H0K1).
T2 construct: purchased ThermoFisher Scientific PV4792
In words: ADP-Glo kinase assay, SIK2. Here is the method: as §1, §2, §3, §4, §5, §6, §7

In a further assay the target is T3, SIK3 (Homo sapiens, UniProt Q9Y2K2).
T3 construct: purchased SignalChem S12-11G-100
In words: ADP-Glo kinase assay, SIK3. Here is the method:
as §1, §2, §3, §4, §5, §6, §7

T3 sequence (Q9Y2K2 whole entry): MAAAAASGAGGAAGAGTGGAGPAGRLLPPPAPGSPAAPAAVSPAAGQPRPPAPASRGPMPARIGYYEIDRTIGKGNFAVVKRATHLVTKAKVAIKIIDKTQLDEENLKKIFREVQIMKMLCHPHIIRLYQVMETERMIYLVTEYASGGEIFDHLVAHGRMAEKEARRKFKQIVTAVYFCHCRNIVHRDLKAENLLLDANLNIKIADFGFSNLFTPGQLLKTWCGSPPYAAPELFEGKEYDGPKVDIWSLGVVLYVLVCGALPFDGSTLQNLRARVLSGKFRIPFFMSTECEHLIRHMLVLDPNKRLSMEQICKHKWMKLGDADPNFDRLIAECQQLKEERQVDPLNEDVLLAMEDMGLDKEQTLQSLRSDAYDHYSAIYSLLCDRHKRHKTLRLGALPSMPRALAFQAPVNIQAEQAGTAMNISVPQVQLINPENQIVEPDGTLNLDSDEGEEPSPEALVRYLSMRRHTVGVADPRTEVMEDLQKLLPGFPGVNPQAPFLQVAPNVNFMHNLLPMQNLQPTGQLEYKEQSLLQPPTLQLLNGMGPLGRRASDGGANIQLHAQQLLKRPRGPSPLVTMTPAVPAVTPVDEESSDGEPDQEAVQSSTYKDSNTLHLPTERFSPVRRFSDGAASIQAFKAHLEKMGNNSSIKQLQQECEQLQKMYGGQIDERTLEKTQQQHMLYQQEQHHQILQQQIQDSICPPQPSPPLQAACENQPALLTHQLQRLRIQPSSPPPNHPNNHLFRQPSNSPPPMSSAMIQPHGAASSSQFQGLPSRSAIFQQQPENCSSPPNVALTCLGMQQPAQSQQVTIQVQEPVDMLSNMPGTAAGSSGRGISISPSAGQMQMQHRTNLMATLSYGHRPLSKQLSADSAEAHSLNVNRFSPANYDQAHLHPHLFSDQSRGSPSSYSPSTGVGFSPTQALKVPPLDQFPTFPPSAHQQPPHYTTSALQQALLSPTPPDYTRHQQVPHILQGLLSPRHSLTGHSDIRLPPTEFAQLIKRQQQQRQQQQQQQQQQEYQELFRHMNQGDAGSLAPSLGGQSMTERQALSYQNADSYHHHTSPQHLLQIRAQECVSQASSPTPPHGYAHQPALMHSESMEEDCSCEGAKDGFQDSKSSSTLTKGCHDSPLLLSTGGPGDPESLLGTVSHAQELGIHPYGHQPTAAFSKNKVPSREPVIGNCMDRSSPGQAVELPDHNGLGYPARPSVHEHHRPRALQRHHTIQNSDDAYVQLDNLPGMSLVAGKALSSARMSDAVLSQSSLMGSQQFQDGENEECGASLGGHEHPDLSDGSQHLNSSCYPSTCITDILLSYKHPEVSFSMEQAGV
T1 sequence (P57059 whole entry): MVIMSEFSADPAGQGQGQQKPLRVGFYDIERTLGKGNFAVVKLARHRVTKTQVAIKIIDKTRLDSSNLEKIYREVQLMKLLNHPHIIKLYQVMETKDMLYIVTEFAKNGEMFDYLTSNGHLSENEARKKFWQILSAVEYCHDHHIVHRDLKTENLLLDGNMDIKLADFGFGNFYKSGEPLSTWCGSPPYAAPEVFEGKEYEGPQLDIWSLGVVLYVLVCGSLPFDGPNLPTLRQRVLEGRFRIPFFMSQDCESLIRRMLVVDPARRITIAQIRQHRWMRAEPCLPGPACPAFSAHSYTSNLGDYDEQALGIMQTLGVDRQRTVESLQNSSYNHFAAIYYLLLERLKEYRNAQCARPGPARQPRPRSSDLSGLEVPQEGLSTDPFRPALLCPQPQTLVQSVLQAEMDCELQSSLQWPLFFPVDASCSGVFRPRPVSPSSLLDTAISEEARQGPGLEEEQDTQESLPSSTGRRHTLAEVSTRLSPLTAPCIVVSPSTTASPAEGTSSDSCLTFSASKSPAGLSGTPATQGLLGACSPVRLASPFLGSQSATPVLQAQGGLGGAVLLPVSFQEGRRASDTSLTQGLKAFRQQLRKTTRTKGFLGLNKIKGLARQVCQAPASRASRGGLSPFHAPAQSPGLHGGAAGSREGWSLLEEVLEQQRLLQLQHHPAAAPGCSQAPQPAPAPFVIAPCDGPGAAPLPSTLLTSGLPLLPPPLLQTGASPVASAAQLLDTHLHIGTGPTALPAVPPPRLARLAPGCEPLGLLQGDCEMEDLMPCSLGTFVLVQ
T2 sequence (Q9H0K1 whole entry): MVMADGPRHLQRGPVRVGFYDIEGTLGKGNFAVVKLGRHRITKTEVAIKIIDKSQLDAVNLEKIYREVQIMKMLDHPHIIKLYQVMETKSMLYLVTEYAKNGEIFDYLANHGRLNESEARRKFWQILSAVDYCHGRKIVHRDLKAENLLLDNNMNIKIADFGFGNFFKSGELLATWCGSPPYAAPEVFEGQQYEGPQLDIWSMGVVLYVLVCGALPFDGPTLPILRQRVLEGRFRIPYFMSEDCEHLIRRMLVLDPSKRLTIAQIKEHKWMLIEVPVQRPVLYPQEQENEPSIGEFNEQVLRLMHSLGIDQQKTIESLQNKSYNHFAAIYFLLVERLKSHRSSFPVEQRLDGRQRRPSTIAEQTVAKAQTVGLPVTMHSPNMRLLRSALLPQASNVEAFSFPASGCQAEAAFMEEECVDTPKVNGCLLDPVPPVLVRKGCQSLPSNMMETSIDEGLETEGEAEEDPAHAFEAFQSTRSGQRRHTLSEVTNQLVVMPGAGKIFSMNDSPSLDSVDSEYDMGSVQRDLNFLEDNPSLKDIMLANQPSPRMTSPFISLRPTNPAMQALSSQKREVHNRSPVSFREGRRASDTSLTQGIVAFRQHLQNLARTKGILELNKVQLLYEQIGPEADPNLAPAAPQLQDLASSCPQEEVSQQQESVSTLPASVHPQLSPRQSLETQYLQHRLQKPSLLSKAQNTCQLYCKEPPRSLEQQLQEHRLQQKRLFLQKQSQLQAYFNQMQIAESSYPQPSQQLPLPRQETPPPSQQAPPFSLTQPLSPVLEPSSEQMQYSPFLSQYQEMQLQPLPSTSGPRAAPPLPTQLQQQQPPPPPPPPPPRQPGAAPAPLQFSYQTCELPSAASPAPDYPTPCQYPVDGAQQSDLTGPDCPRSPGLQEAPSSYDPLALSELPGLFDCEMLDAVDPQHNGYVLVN

With `CCOC(=O)C1CCCN(CCCOc2ccn3c(-c4cc(OC)c(C(=O)NC5CC5)c(OC(F)F)c4)cnc3c2)C1` (stereo not drawn) [compound 395, ethyl 1-[3-[3-[4-(cyclopropylcarbamoyl)-3-(difluoromethoxy)-5-methoxy-phenyl]imidazo[1,2-a]pyridin-7-yl]oxypropyl]piperidine-3-carboxylate], the IC50 was in the range of 10 to 100 nM against SIK1, 0.01 to 10 nM on SIK2 and 0.01 to 10 nM at SIK3.

As to `COc1cc(-c2cnc3cc(OCC(N)C4CCOCC4)ccn23)cc(OC(F)F)c1C(=O)NC1CC1` (stereo not drawn) [compound 135, 4-[7-(2-amino-2-tetrahydropyran-4-yl-ethoxy)imidazo[1,2-a]pyridin-3-yl]-N-cyclopropyl-2-(difluoromethoxy)-6-methoxy-benzamide], the IC50 was in the range of 10 to 100 nM against SIK1, 0.01 to 10 nM against SIK2 and 0.01 to 10 nM against SIK3.

In the case of `COc1cc(-c2cnc3cc(OCC(C)(C)OC)ccn23)cc(OC(F)F)c1C(=O)NC1CC1` [compound 3, N-cyclopropyl-2-(difluoromethoxy)-6-methoxy-4-[7-(2-methoxy-2-methyl-propoxy)imidazo[1,2-a]pyridin-3-yl]benzamide], the IC50 on SIK1 was 10 to 100 nM; against SIK2 it was 0.01 to 10 nM; against SIK3, 0.01 to 10 nM.

Consider `COc1cc(-c2cnc3cc(OC4CCC(F)(F)C4)ccn23)cc(OC(F)F)c1C(=O)NC1CC1` (stereo not drawn) [compound 62, N-cyclopropyl-4-[7-(3,3-difluorocyclopentoxy)imidazo[1,2-a]pyridin-3-yl]-2-(difluoromethoxy)-6-methoxy-benzamide], for which the IC50 on SIK1 was 10 to 100 nM; against SIK2 it was 10 to 100 nM; against SIK3 it was 0.01 to 10 nM.

For `COc1cc(-c2cnc3cc(OCCNc4ncccn4)ccn23)cc(OC(F)F)c1C(=O)NC1CC1` [compound 368, N-cyclopropyl-2-(difluoromethoxy)-6-methoxy-4-[7-[2-(pyrimidin-2-ylamino)ethoxy]imidazo [1,2-a]pyridin-3-yl]benzamide], the half-maximal inhibitory concentration (IC50) on SIK1, at SIK2 and against SIK3 was 0.01 to 10 nM throughout.

`COc1cc(-c2cnc3cc(OCCN(C)CC#N)ccn23)cc(OC(F)F)c1C(=O)NC1CC1` [compound 215, 4-[7-[2-[cyanomethyl(methyl)amino]ethoxy]imidazo[1,2-a]pyridin-3-yl]-N-cyclopropyl-2-(difluoromethoxy)-6-methoxy-benzamide]: the IC50 against SIK1 was 10 to 100 nM; against SIK2 it was 0.01 to 10 nM; on SIK3, 0.01 to 10 nM.

As to `COc1cc(-c2cnc3cc(OC4CCOCC4)ccn23)cc(OC)c1C(=O)NCC(F)(F)F` [Cpd 4, 2,6-dimethoxy-4-(7-tetrahydropyran-4-yloxyimidazo[1,2-a]pyridin-3-yl)-N-(2,2,2-trifluoroethyl) benzamide], the IC50 on SIK1 was greater than 500 nM; against SIK2, 100 to 500 nM; against SIK3, 10 to 100 nM.

As to `COc1cc(-c2cnc3cc(OCCCN4CCOCC45COC5)ccn23)cc(OC(F)F)c1C(=O)NC1CC1` [compound 296, N-cyclopropyl-2-(difluoromethoxy)-4-[7-[3-(2,8-dioxa-5-azaspiro[3.5]nonan-5-yl)propoxy]imidazo[1,2-a]pyridin-3-yl]-6-methoxy-benzamide], the IC50 lay in the range of 10 to 100 nM against SIK1, 0.01 to 10 nM on SIK2 and 0.01 to 10 nM against SIK3.

With `COc1cc(-c2cnc3cc(OC[C@@H]4CCCN(C5COC5)C4)ccn23)cc(OC(F)F)c1C(=O)NC1CC1` [compound 339, N-cyclopropyl-2-(difluoromethoxy)-6-methoxy-4-[7-[[(3R)-1-(oxetan-3-yl)-3-piperidyl]methoxy]imidazo[1,2-a]pyridin-3-yl]benzamide], the IC50 against SIK1 was in the range of 10 to 100 nM; against SIK2, 0.01 to 10 nM; against SIK3 it was 0.01 to 10 nM.

On to `COc1cc(-c2cnc3cc(OCCN(C)c4ccccn4)ccn23)cc(OC(F)F)c1C(=O)NC1CC1` [Cpd 183, N-cyclopropyl-2-(difluoromethoxy)-6-methoxy-4-[7-[2-[methyl(2-pyridyl)amino]ethoxy]imidazo[1,2-a]pyridin-3-yl]benzamide], for which the IC50 against SIK1, against SIK2 and against SIK3 was 0.01 to 10 nM in each case.

As to `COc1cc(-c2cnc3cc(OCCCN4CC5(CCS5(=O)=O)C4)ccn23)cc(OC(F)F)c1C(=O)NC1CC1` [compound 332, N-cyclopropyl-2-(difluoromethoxy)-4-[7-[3-(1,1-dioxo-1λ^6-thia-6-azaspiro[3.3]heptan-6-yl)propoxy]imidazo[1,2-a]pyridin-3-yl]-6-methoxy-benzamide], the half-maximal inhibitory concentration (IC50) against SIK1 lay in the range of 10 to 100 nM; on SIK2, 0.01 to 10 nM; on SIK3 it was 0.01 to 10 nM.

Regarding `COc1cc(-c2cnc3cc(OCC4(C)CNC4)ccn23)cc2c1C(=O)N(CC(F)(F)F)CC2` [Cpd 251, 8-methoxy-6-[7-[(3-methylazetidin-3-yl)methoxy]imidazo [1,2-a]pyridin-3-yl]-2-(2,2,2-trifluoroethyl)-3,4-dihydroisoquinolin-1-one], the IC50 against SIK1 lay within 100 to 500 nM; against SIK2, 10 to 100 nM; at SIK3 it was 0.01 to 10 nM.

As for `Cc1cc(-c2cnc3cc(OCCN4CCOCC4)ccn23)cc(OC(F)F)c1C(=O)NC1CC1` [compound 241, N-cyclopropyl-2-(difluoromethoxy)-6-methyl-4-[7-(2-morpholinoethoxy)imidazo[1,2-a]pyridin-3-yl]benzamide], the results for the IC50 at SIK1, on SIK2 and on SIK3 were 100 to 500 nM, 10 to 100 nM and 0.01 to 10 nM, respectively.

As to `COc1cc(-c2cnc3cc(OCC4CCOCC4)ccn23)cc(OC(F)F)c1C(=O)NC1CC1` [compound 49, N-cyclopropyl-2-(difluoromethoxy)-6-methoxy-4-[7-(tetrahydropyran-4-ylmethoxy)imidazo[1,2-a]pyridin-3-yl] benzamide], the IC50 at SIK1, at SIK2 and on SIK3 was 0.01 to 10 nM in each case.

With `CCOCCOc1cc(-c2cnc3cc(OCCN(C)C)ccn23)cc(OC)c1C(=O)NC1CC1` [Cpd 56, N-cyclopropyl-4-[7-[2-(dimethylamino)ethoxy]imidazo [1,2-a]pyridin-3-yl]-2-(2-ethoxyethoxy)-6-methoxy-benzamide], the IC50 at SIK1 was greater than 500 nM; against SIK2, 100 to 500 nM; against SIK3 it was 100 to 500 nM.

For the molecule `COc1cc(-c2cnc3cc(OCC(C)(C)N4CCOCC4)ccn23)cc(OC(F)F)c1C(=O)NC1CC1` [compound 11, N-cyclopropyl-2-(difluoromethoxy)-6-methoxy-4-[7-(2-methyl-2-morpholino-propoxy)imidazo[1,2-a]pyridin-3-yl]benzamide], the IC50 at SIK1 lay within 100 to 500 nM; at SIK2, 10 to 100 nM; against SIK3, 0.01 to 10 nM.

In the case of `COc1cc(-c2cnc3cc(OCc4cnn(C)c4)ccn23)cc(OC(F)F)c1C(=O)NC1CC1` [compound 199, N-cyclopropyl-2-(difluoromethoxy)-6-methoxy-4-[7-[(1-methylpyrazol-4-yl)methoxy]imidazo[1,2-a]pyridin-3-yl]benzamide], the IC50 at SIK1 lay in the range of 10 to 100 nM; against SIK2, 0.01 to 10 nM; on SIK3, 0.01 to 10 nM.

For the molecule `COc1cc(-c2cnc3cc(OCC4(N)CCCCC4)ccn23)cc(OC(F)F)c1C(=O)NC1CC1` [compound 169, 4-[7-[(1-aminocyclohexyl)methoxy]imidazo[1,2-a]pyridin-3-yl]-N-cyclopropyl-2-(difluoromethoxy)-6-methoxy-benzamide], the IC50 on SIK1 is 100 to 500 nM; against SIK2, 10 to 100 nM; against SIK3, 0.01 to 10 nM.

Take `COc1cc(-c2cnc3cc(OCCN4CCOC(C)C4)ccn23)cc(OC(F)F)c1C(=O)NC1CC1` (stereo not drawn) [compound 214, N-cyclopropyl-2-(difluoromethoxy)-6-methoxy-4-[7-[2-(2-methylmorpholin-4-yl)ethoxy]imidazo[1,2-a]pyridin-3-yl] benzamide]: the IC50 on SIK1 was in the range of 10 to 100 nM; at SIK2 it was 0.01 to 10 nM; against SIK3, 0.01 to 10 nM.

For the molecule `COc1cc(-c2cnc3cc(OC4CCN(C)CC4)ccn23)cc(OC(F)F)c1C(=O)NC1CC1` [compound 7, N-cyclopropyl-2-(difluoromethoxy)-6-methoxy-4-[7-[(1-methyl-4-piperidyl)oxy]imidazo[1,2-a]pyridin-3-yl]benzamide], the IC50 against SIK1 is greater than 500 nM; on SIK2, 10 to 100 nM; against SIK3, 10 to 100 nM.

On to `COc1cc(-c2cnc3cc(OCCNc4ccncn4)ccn23)cc(OC(F)F)c1C(=O)NC1CC1` [compound 369, N-cyclopropyl-2-(difluoromethoxy)-6-methoxy-4-[7-[2-(pyrimidin-4-ylamino)ethoxy]imidazo [1,2-a]pyridin-3-yl]benzamide], for which the concentration for half-maximal inhibition (IC50) against SIK1, at SIK2 and against SIK3 was 0.01 to 10 nM each time.

`COc1cc(-c2cnc3cc(OCC4(N)CCOC4)ccn23)cc(OC(F)F)c1C(=O)NC1CC1` (stereo not drawn) [compound 176, 4-[7-[(3-aminotetrahydrofuran-3-yl)methoxy]imidazo[1,2-a]pyridin-3-yl]-N-cyclopropyl-2-(difluoromethoxy)-6-methoxy-benzamide]: the 50% inhibitory concentration (IC50) against SIK1 was in the range of 10 to 100 nM; on SIK2, 0.01 to 10 nM; at SIK3 it was 0.01 to 10 nM.
